Here are results for 19 compounds from US20050032873A1, “3-Amino chroman and 2-amino tetralin derivatives” (Wyeth, priority 2003, published 2005).

The target in test [1] is T1, 5-HT1A receptor (Homo sapiens, UniProt P08908).
T1 sequence (P08908 1-422): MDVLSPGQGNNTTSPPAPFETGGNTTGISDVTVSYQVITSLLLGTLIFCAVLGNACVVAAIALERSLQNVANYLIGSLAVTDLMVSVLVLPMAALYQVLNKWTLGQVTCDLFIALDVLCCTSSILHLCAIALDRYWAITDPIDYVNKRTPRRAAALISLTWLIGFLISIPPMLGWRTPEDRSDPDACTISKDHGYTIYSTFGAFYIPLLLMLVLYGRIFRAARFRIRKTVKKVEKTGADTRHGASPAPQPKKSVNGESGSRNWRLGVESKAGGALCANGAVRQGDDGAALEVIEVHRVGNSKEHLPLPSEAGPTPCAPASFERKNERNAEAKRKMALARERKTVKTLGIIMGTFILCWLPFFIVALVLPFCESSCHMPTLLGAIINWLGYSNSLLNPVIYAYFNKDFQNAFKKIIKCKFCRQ
Nature of the test: cAMP accumulation assay, 5-HT1A function. It counts as cell-based. The note with it: for pEC50: cells marked EC50 (agonist); for Emax: in brackets after EC50 or IC50, read-out: 5-HT1A Function cAMP (Emax); for pIC50: cells marked IC50 (antagonist), read-out: 5-HT1A Function cAMP IC50.
Excerpt: The agonist or antagonist activity at 5-HT1A receptors was established by using two different assays. […] Agonists produce an increase in binding whereas antagonists produce no increase but rather reverse the effects of the standard agonist 8-OH-DPAT. The test compound's maximum stimulatory effect is represented as the Emax, while its potency is defined by the EC50. The test compound's maximum inhibitory effect is represented as the Imax, while its potency is defined by the IC50. The second assay measured cAMP accumulation upon binding of the ligand to the 5-HT1A receptor. […] The test compound's maximum stimulatory or inhibitory effect is represented as the Emax while its potency is defined by either IC50 for an antagonist or EC50 for an agonist. [^3H]-8-OH-DPAT was used to determine maximum agonist or antagonist response in both functional assays.

Test [2] deals with T1, 5-HT1A receptor. Nature of the test: 5-HT1A receptor affinity: displacement of [3H] 8-OH-DPAT. It counts as binding. Also noted: expressed in transfected cells. Particulars: displacement of [3H] 8-OH-DPAT; CHO cells stably transfected with human 5-HT1A receptors; read-out: 5-HT1A Receptor Affinity Ki. A general note: Loss of bound radioactivity is the signal in a displacement assay; it reports binding, not function.

Test [3] concerns the target T2, cloned human 5-HT1A receptors (Homo sapiens, UniProt P08908).
T2 construct: expressed in transfected cells
T2 sequence (P08908 1-422): T1 sequence (P08908 1-422)
Nature of the test: 35S-GTPγS binding assay, 5-HT1A function. It counts as biochemical. Particulars: for pEC50: agonist potency; for pIC50: antagonist potency, reversal of 8-OH-DPAT, read-out: 5-HT1A Function GTPγS IC50. A general note: GTPγS is a poorly hydrolysed GTP analogue; its binding reports G protein activation.

Another test addresses T3, serotonin transporter (Rattus norvegicus, UniProt P31652).
T3 construct: displace ^3H-paroxetine from male rat cortical membranes; from tissue; host or cells: male rat cortical membranes
Nature of the test: 5-HT transporter affinity: displacement of 3H-paroxetine from male rat cortical membranes. The class given is binding. The note with it: displacement of 3H-paroxetine; male rat cortical membranes; read-out: 5-HT Transporter Affinity Ki.

Where [4] appears, read: maximum stimulatory effect, in brackets after EC50, read-out: 5-HT1A Function GTPγS (Emax).
The mark [5] stands for this setting: maximum inhibitory effect, in brackets after IC50, read-out: 5-HT1A Function GTPγS (Imax).

The structures appear in SMILES notation. pEC50, pIC50, pKi: −log10 of the molar value. Read-outs that look alike come from different tables or passages of the source.

T3 sequence (P31652 whole entry): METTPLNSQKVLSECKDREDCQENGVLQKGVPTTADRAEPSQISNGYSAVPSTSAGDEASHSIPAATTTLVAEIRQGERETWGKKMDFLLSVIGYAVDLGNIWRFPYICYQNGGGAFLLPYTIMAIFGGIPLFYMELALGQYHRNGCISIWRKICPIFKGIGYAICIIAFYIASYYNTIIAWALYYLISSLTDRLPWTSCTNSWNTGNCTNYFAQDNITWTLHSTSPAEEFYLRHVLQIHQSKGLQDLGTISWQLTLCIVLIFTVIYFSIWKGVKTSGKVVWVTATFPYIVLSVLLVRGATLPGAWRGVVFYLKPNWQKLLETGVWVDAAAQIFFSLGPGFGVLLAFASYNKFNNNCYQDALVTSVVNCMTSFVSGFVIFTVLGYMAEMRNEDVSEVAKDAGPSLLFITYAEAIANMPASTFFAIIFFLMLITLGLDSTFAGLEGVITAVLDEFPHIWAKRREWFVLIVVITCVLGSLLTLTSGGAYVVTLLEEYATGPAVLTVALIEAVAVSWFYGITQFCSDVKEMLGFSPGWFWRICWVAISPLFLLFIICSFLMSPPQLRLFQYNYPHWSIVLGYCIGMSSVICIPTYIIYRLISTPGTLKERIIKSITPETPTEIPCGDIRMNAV

Turning to `CCCN(CCCc1c[nH]c2ccc(F)cc12)C1COc2c(F)ccc(C(N)=O)c2C1` (centres unmarked) [Compound 2, 8-fluoro-3-{[3-(5-fluoro-1H-indol-3-yl)propyl](propyl)amino}chromane-5-carboxamide], the pEC50 – broadly, −log10 of the EC50, conventionally taken in molar units – at 5-HT1A receptor [1] was 7.98; in test [3] it was 6.77. For the same compound, the Emax is 83.5% on 5-HT1A receptor [1] and 77% in test [3] (setting [4]). The figures for the pKi at 5-HT1A receptor [2] and on serotonin transporter were 8.53 and 8.22, respectively.
For `NC(=O)c1ccc(Cl)c2c1CC(N(CCCc1c[nH]c3ccc(F)cc13)C1CCC1)CO2` (centres unmarked) [Compound 7, 8-chloro-3-{cyclobutyl[3-(5-fluoro-1H-indol-3-yl)propyl]amino}chromane-5-carboxamide], the pIC50 (usually the IC50 on a negative log10 scale, so that one unit is a factor of ten) is 7.22 on 5-HT1A receptor [1] and 5.78 in test [3]. The Emax at 5-HT1A receptor [1] worked out at 0%; in test [3] (setting [5]), 100%. Also, the pKi (usually the Ki on a negative log10 scale, so that one unit is a factor of ten) at 5-HT1A receptor [2] was 8.21; on serotonin transporter it was 8.49.
In the case of `NC(=O)c1ccc(F)c2c1CC(N(CCC(=O)c1c[nH]c3ccc(F)cc13)C1CCC1)CO2` (centres unmarked) [Compound 8, 3-{cyclobutyl[3-(5-fluoro-1H-indol-3-yl)-3-oxopropyl]amino}-8-fluorochromane-5-carboxamide], the pIC50 at 5-HT1A receptor [1] is 6.32; in test [3], 5.86. The Emax at 5-HT1A receptor [1] stood at 0%; in test [3] (setting [5]), 100%. Besides, the pKi on 5-HT1A receptor [2] was 6.99; on serotonin transporter it was 6.59.
Take `COC(=O)c1ccc(F)c2c1CC(NCCCc1c[nH]c3ccc(F)cc13)CO2` (centres unmarked) [Compound 10, Methyl 8-fluoro-3-{[3-(5-fluoro-1H-indol-3-yl)propyl]amino}chromane-5-carboxylate]: the results for the pEC50 (at 5-HT1A receptor [1]; in test [3]) were 7.79 and 7.52, respectively. Moreover, the Emax was 70.5% on 5-HT1A receptor [1] and 85% in test [3] (setting [4]). Further, the pKi at 5-HT1A receptor [2] is 8.20; at serotonin transporter, 7.96.
In the case of `COC(=O)c1ccc(F)c2c1CC(N(CCCc1c[nH]c3ccc(F)cc13)C1CCC1)CO2` (centres unmarked) [Compound 11, Methyl 3-{cyclobutyl[3-(5-fluoro-1H-indol-3-yl)propyl]amino}-8-fluorochromane-5-carboxylate], the pIC50 is 6.39 at 5-HT1A receptor [1] and 6.46 in test [3]. Besides, the Emax on 5-HT1A receptor [1] is 0%; in test [3] (setting [5]) it was 62%. In addition, the pKi at 5-HT1A receptor [2] was 7.13; at serotonin transporter, 6.79.
Regarding `CCCN(CCC(O)c1csc2ccc(F)cc12)C1COc2c(F)ccc(C(N)=O)c2C1` (centres unmarked) [Compound 17, 8-fluoro-3-[[3-(5-fluoro-1-benzothien-3-yl)-3-hydroxypropyl](propyl)amino]chromane-5-carboxamide], the values for the pEC50 (on 5-HT1A receptor [1]; in test [3]) were 7.12 and 7.03, respectively. The Emax at 5-HT1A receptor [1] stood at 74.5%; in test [3] (setting [4]), 42%. Besides, the pKi at 5-HT1A receptor [2] was 9.06; at serotonin transporter, 6.80.
Take `CCN(CCCc1csc2ccccc12)C1COc2cccc(OC)c2C1` (centres unmarked) [Compound 18, N-[3-(1-benzothien-3-yl)propyl]-N-ethyl-5-methoxychroman-3-amine]: the pEC50 on 5-HT1A receptor [1] was 7.96; in test [3], 6.63. Besides, the Emax at 5-HT1A receptor [1] turned out to be 93.5%; in test [3] (setting [4]), 100%. For the same compound, the pKi is 8.43 on 5-HT1A receptor [2] and 6.90 at serotonin transporter.
Regarding `CCCN(CCCc1csc2ccc(F)cc12)C1COc2cccc(OC)c2C1` (centres unmarked) [Compound 19, N-[3-(5-fluoro-1-benzothien-3-yl)propyl]-5-methoxy-N-propylchroman-3-amine], the pEC50 was 7.09 on 5-HT1A receptor [1] and 6.50 in test [3]. The Emax on 5-HT1A receptor [1] amounted to 86.5%; in test [3] (setting [4]) it was 100%. The pKi was 7.79 on 5-HT1A receptor [2] and 6.39 on serotonin transporter.
Consider `CCCN(CCCc1coc2ccccc12)C1COc2c(F)ccc(C(N)=O)c2C1` (centres unmarked) [Compound 20, 3-[[3-(1-benzofuran-3-yl)propyl](propyl)amino]-8-fluorochromane-5-carboxamide], for which the pEC50 on 5-HT1A receptor [1] was 7.21; in test [3], 7.45. In addition, the Emax at 5-HT1A receptor [1] was 88%; in test [3] (setting [4]) it was 84%. Moreover, the pKi on 5-HT1A receptor [2] is 9.43; at serotonin transporter, 6.24.
On to `CCN(CCCc1coc2ccccc12)C1COc2cccc(OC)c2C1` (centres unmarked) [Compound 21, N-[3-(1-benzofuran-3-yl)propyl]-N-ethyl-5-methoxychroman-3-amine], for which the pEC50 at 5-HT1A receptor [1] is 8.02; in test [3] it was 7.55. The Emax at 5-HT1A receptor [1] came out at 90.5%; in test [3] (setting [4]), 98.5%. Also, the figures for the pKi at 5-HT1A receptor [2] and on serotonin transporter were 9.42 and 6.51, respectively.
In the case of `CCN(CCCCc1coc2ccccc12)C1COc2cccc(OC)c2C1` (centres unmarked) [Compound 22, N-[4-(1-benzofuran-3-yl)butyl]-N-ethyl-N-(5-methoxy-3,4-dihydro-2H-chromen-3-yl)amine], the negative logarithm of the EC50 (pEC50) is 7.51 at 5-HT1A receptor [1] and 6.65 in test [3]. In addition, the Emax at 5-HT1A receptor [1] was found to be 100%; in test [3] (setting [5]), 31%; in test [3] (setting [4]) it was 82%. Besides, the negative logarithm of the Ki (pKi) at 5-HT1A receptor [2] was 8.32; on serotonin transporter, 7.45. Besides, the pIC50 in test [3] is 5.93.
On to `CCCN(CCCc1c[nH]c2ccc(F)cc12)C1COc2cccc(OC)c2C1` (centres unmarked) [Compound 23, [3-(5-fluoro-1H-indol-3-yl)propyl]-N-(5-methoxy-chroman-3-yl)propylamine], for which the figures for the negative-log EC50 (pEC50) (on 5-HT1A receptor [1]; in test [3]) were 7.41 and 7.00, respectively. In addition, the Emax came to 80.5% at 5-HT1A receptor [1] and 100% in test [3] (setting [4]). Also, the pKi was 7.80 on 5-HT1A receptor [2] and 8.05 on serotonin transporter.
Consider `CCCN(CCCc1c[nH]c2ccc(F)cc12)[C@@H]1COc2c(F)ccc(OC)c2C1` [Compound 27, (3S)-8-fluoro-N-[3-(5-fluoro-1H-indol-3-yl)propyl]-5-methoxy-N-propylchroman-3-amine], for which the pEC50 is 7.79 on 5-HT1A receptor [1] and 6.93 in test [3]. Besides, the figures for the Emax (at 5-HT1A receptor [1]; in test [3] (setting [4])) were 88.5% and 97%, respectively. Also, the values for the negative logarithm of the Ki (pKi) at 5-HT1A receptor [2] and at serotonin transporter were 7.90 and 7.87, respectively.
`CCCN(CCCc1c[nH]c2ccc(F)cc12)[C@H]1COc2c(F)ccc(OC)c2C1` [Compound 28, (3R)-8-fluoro-N-[3-(5-fluoro-1H-indol-3-yl)propyl]-5-methoxy-N-propylchroman-3-amine]: the pEC50 was 7.44 on 5-HT1A receptor [1] and 6.78 in test [3]. In addition, the Emax amounted to 86% on 5-HT1A receptor [1] and 88% in test [3] (setting [4]). Moreover, the results for the pKi at 5-HT1A receptor [2] and at serotonin transporter were 7.96 and 7.76, respectively.
As for `CCCN(CCc1c[nH]c2ccc(F)cc12)C1COc2cccc(OC)c2C1` (centres unmarked) [Compound 29, N-[2-(5-fluoro-1H-indol-3-yl)ethyl]-5-methoxy-N-propylchroman-3-amine], the pEC50 at 5-HT1A receptor [1] was 7.11; in test [3], 6.69. In addition, the Emax worked out at 99% on 5-HT1A receptor [1] and 70% in test [3] (setting [4]). Besides, the pKi on 5-HT1A receptor [2] was 8.14; on serotonin transporter it was 7.57.
With `CCCN(CCCCc1c[nH]c2ccc(F)cc12)C1COc2cccc(OC)c2C1` (centres unmarked) [Compound 30, N-[4-(5-fluoro-1H-indol-3-yl)butyl]-5-methoxy-N-propylchroman-3-amine], the results for the negative logarithm of the EC50 (pEC50) (on 5-HT1A receptor [1]; in test [3]) were 7.56 and 7.02, respectively. Besides, the Emax amounted to 94% at 5-HT1A receptor [1] and 83% in test [3] (setting [4]). Besides, the pKi was 8.44 on 5-HT1A receptor [2] and 7.90 on serotonin transporter.
As to `CCN(CCCc1c[nH]c2ccc(F)cc12)C1COc2cccc(OC)c2C1` (centres unmarked) [Compound 31, N-ethyl-N-[3-(5-fluoro-1H-indol-3-yl)propyl]-5-methoxychroman-3-amine], the pEC50 was 7.58 on 5-HT1A receptor [1] and 7.27 in test [3]. For the same compound, the Emax at 5-HT1A receptor [1] was 96%; in test [3] (setting [4]), 99%. The pKi at 5-HT1A receptor [2] is 8.63; at serotonin transporter, 8.66.
In the case of `CCN(CCCCc1c[nH]c2ccc(F)cc12)C1COc2cccc(OC)c2C1` (centres unmarked) [Compound 32, N-ethyl-N-[4-(5-fluoro-1H-indol-3-yl)butyl]-5-methoxychroman-3-amine], the results for the pEC50 (on 5-HT1A receptor [1]; in test [3]) were 7.07 and 6.91, respectively. For the same compound, the Emax at 5-HT1A receptor [1] was 95%; in test [3] (setting [4]), 100%. For the same compound, the pKi on 5-HT1A receptor [2] was 8.56; at serotonin transporter it was 8.96.
`COc1cccc2c1CC(N(C)CCCc1c[nH]c3ccc(F)cc13)CO2` (centres unmarked) [Compound 33, N-[3-(5-fluoro-1H-indol-3-yl)propyl]-5-methoxy-N-methylchroman-3-amine]: the pEC50 on 5-HT1A receptor [1] was 7.02; in test [3], 8.44. Further, the Emax at 5-HT1A receptor [1] was 91%; in test [3] (setting [4]), 69%. For the same compound, the pKi on 5-HT1A receptor [2] is 7.40; on serotonin transporter, 8.17.
